# US20120258980A1, “Antibacterial Agent for Drug-Resistant Bacteria, Method for Screening for Same, and Use of Same” (priority 2009, published 2012)
# Structures can show the parent of a compound that is named as a salt. Where two headings read alike, the source gives them in different places.
# Assays:
# [1] = system: VISA clinical isolates of MRSA (VI-MRSA) and of MSSA (VI-MSSA); assay: microbe, parasite or virus in culture; assay type: cell-based, Staphylococcus aureus
# Procedure, shortened: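 Strains were grown overnight at 37° C in TSB, adjusted in CAMHB to 0.3 absorbance at 578 nm and diluted 500-fold before equal-volume addition to compound dilutions.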
# [2] = system: methicillin-susceptible S. aureus (MSSA), MRSA and mutants thereof; assay: MIC measurement, Test Example 3 (MSSA, MRSA and sequential gyrA/grlA quinolone-resistant mutants); assay type: cell-based, Staphylococcus aureus; conditions: Staphylococcus aureus
# Procedure, shortened: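 Clinical isolates and stepwise gyrA/grlA quinolone-resistant mutants grown overnight at 37° C in TSB, adjusted to A578 0.3 in CAMHB, diluted 500-fold and mixed 1:1 with drug dilutions in CAMHB.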
# Enterococcus faecalis = assay: MIC measurement, Test Example 6 (enterococcus); assay type: cell-based; conditions: Enterococcus faecalis, read-out: MIC
# Procedure, shortened: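 E. faecalis strains, including vancomycin-resistant NCTC12201 and NCTC12203, pre-grown overnight in TSB at 37° C, set to A578 0.3 in CAMHB, then diluted 500-fold.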
# [3] = system: MRSA, CA-MRSA and MSSA of Staphylococcus aureus; assay: MIC measurement, Test Example 4 (MRSA, CA-MRSA and MSSA strains); assay type: cell-based; conditions: Staphylococcus aureus
# Procedure, shortened: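 S. aureus strains (FDA209P control) grown overnight in TSB at 37° C, resuspended in CAMHB, adjusted to A578 0.3 and diluted 500-fold. Equal volume added to CAMHB with serial compound concentrations, incubated statically overnight at 37° C. MIC read visually as lowest concentration without turbidity.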
smiles,measurement,setting,value
"NC1CCN(c2nc3c(cc2F)c(=O)c(C(=O)O)cn3-c2ccc(F)cc2F)C1 (centres unmarked) [TFLX, tosufloxacin tosylate]",MIC,"[1]; Staphylococcus aureus, 99/3700-W, VI-MRSA, The United Kingdom",8 µg/mL
same,MIC,"[1]; Staphylococcus aureus, 99/3759-V, VI-MRSA, The United Kingdom",16 µg/mL
same,MIC,"[1]; Staphylococcus aureus, 28160, VI-MRSA, South African Republic",32 µg/mL
same,MIC,"[1]; Staphylococcus aureus, 98141, VI-MRSA, France",32 µg/mL
same,MIC,"[1]; Staphylococcus aureus, A7 (JCSC4842), VI-MRSA, Taiwan",32 µg/mL
same,MIC,"[1]; Staphylococcus aureus, AMC11094, VI-MRSA, Korea",> 128 µg/mL
same,MIC,"[1]; Staphylococcus aureus, B7 (JCSC4852), VI-MRSA, Taiwan",16 µg/mL
same,MIC,"[1]; Staphylococcus aureus, BR1, VI-MRSA, Brazil",128 µg/mL
same,MIC,"[1]; Staphylococcus aureus, BR2, VI-MRSA, Brazil",32 µg/mL
same,MIC,"[1]; Staphylococcus aureus, BR3, VI-MRSA, Brazil",32 µg/mL
same,MIC,"[1]; Staphylococcus aureus, BR4, VI-MRSA, Brazil",> 128 µg/mL
same,MIC,"[1]; Staphylococcus aureus, BR5, VI-MRSA, Brazil",> 128 µg/mL
same,MIC,"[1]; Staphylococcus aureus, HIP06297, VI-MRSA, America",128 µg/mL
same,MIC,"[1]; Staphylococcus aureus, HIP06854, VI-MRSA, America",128 µg/mL
same,MIC,"[1]; Staphylococcus aureus, HIP07920, VI-MRSA, America",4 µg/mL
same,MIC,"[1]; Staphylococcus aureus, HIP07930, VI-MRSA, America",> 128 µg/mL
same,MIC,"[1]; Staphylococcus aureus, HIP08926, VI-MRSA, America",128 µg/mL
same,MIC,"[1]; Staphylococcus aureus, HIP09143, VI-MRSA, America",> 128 µg/mL
same,MIC,"[1]; Staphylococcus aureus, HIP09313, VI-MRSA, America",128 µg/mL
same,MIC,"[1]; Staphylococcus aureus, HIP09433, VI-MRSA, America",> 128 µg/mL
same,MIC,"[1]; Staphylococcus aureus, HIP09662, VI-MRSA, America",> 128 µg/mL
same,MIC,"[1]; Staphylococcus aureus, HIP09735, VI-MRSA, America",> 128 µg/mL
same,MIC,"[1]; Staphylococcus aureus, HIP09737, VI-MSSA, America",> 128 µg/mL
same,MIC,"[1]; Staphylococcus aureus, HIP09740, VI-MRSA, America",> 128 µg/mL
same,MIC,"[1]; Staphylococcus aureus, HIP10267, VI-MRSA, America",> 128 µg/mL
same,MIC,"[1]; Staphylococcus aureus, HIP10540, VI-MRSA, America",128 µg/mL
same,MIC,"[1]; Staphylococcus aureus, HIP12864, VI-MRSA, America",> 128 µg/mL
same,MIC,"[1]; Staphylococcus aureus, HIP13036, VI-MRSA, America",64 µg/mL
same,MIC,"[1]; Staphylococcus aureus, HIP13057, VI-MRSA, America",> 128 µg/mL
same,MIC,"[1]; Staphylococcus aureus, IL (HIP7737), VI-MRSA, America",> 128 µg/mL
same,MIC,"[1]; Staphylococcus aureus, JCSC7193, VI-MRSA, Thailand",128 µg/mL
same,MIC,"[1]; Staphylococcus aureus, JCSC7195, VI-MRSA, Thailand",> 128 µg/mL
same,MIC,"[1]; Staphylococcus aureus, JCSC7203, VI-MRSA, Thailand",128 µg/mL
same,MIC,"[1]; Staphylococcus aureus, LIM2, VI-MRSA, France",> 128 µg/mL
same,MIC,"[1]; Staphylococcus aureus, LY-1999-01, VI-MSSA, Oman",8 µg/mL
same,MIC,"[1]; Staphylococcus aureus, LY-1999-03, VI-MRSA, Oman",32 µg/mL
same,MIC,"[1]; Staphylococcus aureus, MI (HIP5827), VI-MRSA, America",16 µg/mL
same,MIC,"[1]; Staphylococcus aureus, MRSA / MSSA / NRS 76 / VISA, NRS76, VI-MSSA, America",> 128 µg/mL
same,MIC,"[1]; Staphylococcus aureus, MRSA / MSSA / NRS 79 / VISA, NRS79, VI-MRSA, America",> 128 µg/mL
same,MIC,"[1]; Staphylococcus aureus, MRSA / MSSA / NRS 118 / VISA, NRS118, VI-MRSA, America",> 128 µg/mL
same,MIC,"[1]; Staphylococcus aureus, MRSA / MSSA / NRS 126 / VISA, NRS126, VI-MRSA, America",128 µg/mL
same,MIC,"[1]; Staphylococcus aureus, Mu3, VI-MRSA, Japan",16 µg/mL
same,MIC,"[1]; Staphylococcus aureus, Mu50, VI-MRSA, Japan",> 128 µg/mL
same,MIC,"[1]; Staphylococcus aureus, NJ (HIP5836), VI-MRSA, America",32 µg/mL
same,MIC,"[1]; Staphylococcus aureus, P1V44, VI-MSSA, Belgium",8 µg/mL
same,MIC,"[1]; Staphylococcus aureus, PC, VI-MRSA, America",128 µg/mL
same,MIC,"[1]; Staphylococcus aureus, SA MER-S6, VI-MSSA, France",0.25 µg/mL
same,MIC,"[1]; Staphylococcus aureus, SA MER-S12, VI-MSSA, France",0.25 µg/mL
same,MIC,"[1]; Staphylococcus aureus, SA MER-S20, VI-MSSA, France",1 µg/mL
same,MIC,"[2]; FDA209P / MRSA / MSSA, FDA209P (MSSA), control, read-out: MIC",≤ 0.063 µg/mL
same,MIC,"[2]; MR5867 (MRSA), clinical isolate parent strain, no mutation",≤ 0.063 µg/mL
same,MIC,"[2]; MR5867-3, third-step mutant, further grlA S80F",> 128 µg/mL
same,MIC,"[2]; MR5867-4, fourth-step mutant, further gyrA E88K",> 128 µg/mL
same,MIC,"[2]; MS5935-1, first-step quinolone-resistant mutant, grlA S80F",1 µg/mL
same,MIC,"[2]; MS5935-2, second-step mutant, further gyrA S84L",64 µg/mL
same,MIC,"[2]; MS5935-3, third-step mutant, further grlA E84K",> 128 µg/mL
same,MIC,"[2]; MS5952-1, first-step quinolone-resistant mutant, grlA S80Y",2 µg/mL
same,MIC,"[2]; MS5952-3, third-step mutant, further grlA A116V",> 128 µg/mL
same,MIC,"Enterococcus faecalis; E. faecalis 36-15672, quinolone-susceptible enterococci",0.5 µg/mL
same,MIC,"Enterococcus faecalis; E. faecalis 36-15673, quinolone-susceptible enterococci",0.5 µg/mL
same,MIC,"Enterococcus faecalis; E. faecalis 36-15678, quinolone-susceptible enterococci",0.5 µg/mL
same,MIC,"Enterococcus faecalis; E. faecalis 36-15686, quinolone-resistant enterococci",> 128 µg/mL
same,MIC,"Enterococcus faecalis; E. faecalis 36-15688, quinolone-susceptible enterococci",≤ 0.063 µg/mL
same,MIC,"Enterococcus faecalis; E. faecalis 36-15694, quinolone-resistant enterococci",> 128 µg/mL
same,MIC,"Enterococcus faecalis; E. faecalis 36-15696, quinolone-susceptible enterococci",0.25 µg/mL
same,MIC,"Enterococcus faecalis; E. faecalis 36-15703, quinolone-resistant enterococci",> 128 µg/mL
same,MIC,"Enterococcus faecalis; E. faecalis 36-15716, quinolone-resistant enterococci",> 128 µg/mL
same,MIC,"Enterococcus faecalis; E. faecalis 36-15718, quinolone-susceptible enterococci",0.25 µg/mL
same,MIC,"Enterococcus faecalis; E. faecalis 36-15720, quinolone-susceptible enterococci",0.5 µg/mL
same,MIC,"Enterococcus faecalis; E. faecalis 36-15722, quinolone-resistant enterococci",> 128 µg/mL
same,MIC,"Enterococcus faecalis; E. faecalis 36-15726, quinolone-resistant enterococci",> 128 µg/mL
same,MIC,"Enterococcus faecalis; E. faecalis 36-15730, quinolone-susceptible enterococci",0.5 µg/mL
same,MIC,"Enterococcus faecalis; E. faecalis 36-15736, quinolone-susceptible enterococci",0.25 µg/mL
same,MIC,"Enterococcus faecalis; E. faecalis 36-15741, quinolone-susceptible enterococci",0.5 µg/mL
same,MIC,"Enterococcus faecalis; NCTC 12201 / VRE, E. faecalis NCTC12201, vancomycin-resistant (VRE), quinolone-susceptible enterococci",0.25 µg/mL
same,MIC,"Enterococcus faecalis; NCTC 12203 / VRE, E. faecalis NCTC12203, vancomycin-resistant (VRE), quinolone-susceptible enterococci",0.5 µg/mL
same,MIC,"[3]; ATCC 29213 / MRSA / MSSA, ATCC 29213, MSSA",≤ 0.063 µg/mL
same,MIC,"[3]; COL, MRSA",0.125 µg/mL
same,MIC,"[3]; FDA209P / MRSA / MSSA, FDA209P, MSSA",≤ 0.063 µg/mL
same,MIC,"[3]; ISA12-1, MRSA",≤ 0.063 µg/mL
same,MIC,"[3]; ISA12-2, MRSA",≤ 0.063 µg/mL
same,MIC,"[3]; ISA35-1, MRSA",0.25 µg/mL
same,MIC,"[3]; ISA37-1, MSSA",≤ 0.063 µg/mL
same,MIC,"[3]; ISA49-1, MSSA",≤ 0.063 µg/mL
same,MIC,"[3]; ISA51-1, MSSA",≤ 0.063 µg/mL
same,MIC,"[3]; ISA56-3, MRSA",≤ 0.063 µg/mL
same,MIC,"[3]; ISA58-1, MRSA",0.5 µg/mL
same,MIC,"[3]; ISA62-1, MRSA",≤ 0.063 µg/mL
same,MIC,"[3]; ISA73-1, MSSA",≤ 0.063 µg/mL
same,MIC,"[3]; KBSA32, MRSA",≤ 0.063 µg/mL
same,MIC,"[3]; KBSA34, MRSA",≤ 0.063 µg/mL
same,MIC,"[3]; KBSA72, MRSA",> 128 µg/mL
same,MIC,"[3]; KBSA96, MRSA",16 µg/mL
same,MIC,"[3]; KBSA171, MRSA",8 µg/mL
same,MIC,"[3]; KSA24, MRSA",8 µg/mL
same,MIC,"[3]; KSA31, MRSA",4 µg/mL
same,MIC,"[3]; KSA36, MRSA",> 128 µg/mL
same,MIC,"[3]; MRSA / MSSA / NCTC 8325, NCTC 8325, MSSA",≤ 0.063 µg/mL
same,MIC,"[3]; MRSA / MSSA / USA300, USA300 FPR3757, CA-MRSA",16 µg/mL
same,MIC,"[3]; MW2, CA-MRSA",≤ 0.063 µg/mL
same,MIC,"[3]; N315, MRSA",≤ 0.063 µg/mL
